Test results as given in ChEMBL document CHEMBL4145494, “Synthesis and biological evaluation of aurora kinases inhibitors based on N-trisubstituted pyrimidine scaffold” (Eur J Med Chem, 2018).

What follows are compounds tested on K562 (assay: Antiproliferative activity against human K562 cells after 48 hrs by CCK8 assay). Conditions: K562, 48 h.
Type: functional, cell-based

COc1ccc(Nc2nc(Nc3cc(C)[nH]n3)cc(N3CCN(C)CC3)n2)cc1OC and Cc1cc(Nc2cc(N3CCN(C)CC3)nc(Nc3ccc(F)cc3)n2)n[nH]1 are within 1.5-fold of each other in IC50: 0.462 µM for the first, 0.357 µM for the second.

What follows are compounds tested on U-937 (assay: Antiproliferative activity against human U937 cells after 48 hrs by CCK8 assay). Conditions: U-937, 48 h.
Type: functional, cell-based

Going from COc1ccc(Nc2nc(Nc3cc(C)[nH]n3)cc(N3CCN(C)CC3)n2)cc1OC to Cc1cc(Nc2cc(N3CCN(C)CC3)nc(Nc3ccc(F)cc3)n2)n[nH]1, the IC50 falls from 0.15 µM to 0.0432 µM (3.5-fold). The second is the more potent here.

Each compound was assayed against Aurora kinase B (Homo sapiens, UniProt Q96GD4) (assay: Inhibition of AURKB (unknown origin) using FAM-labeled peptide substrate preincubated for 10 mins followed by substrate addition measured after 60 mins by caliper assay). Conditions: not given.
Sequence of Aurora kinase B (Q96GD4 whole entry): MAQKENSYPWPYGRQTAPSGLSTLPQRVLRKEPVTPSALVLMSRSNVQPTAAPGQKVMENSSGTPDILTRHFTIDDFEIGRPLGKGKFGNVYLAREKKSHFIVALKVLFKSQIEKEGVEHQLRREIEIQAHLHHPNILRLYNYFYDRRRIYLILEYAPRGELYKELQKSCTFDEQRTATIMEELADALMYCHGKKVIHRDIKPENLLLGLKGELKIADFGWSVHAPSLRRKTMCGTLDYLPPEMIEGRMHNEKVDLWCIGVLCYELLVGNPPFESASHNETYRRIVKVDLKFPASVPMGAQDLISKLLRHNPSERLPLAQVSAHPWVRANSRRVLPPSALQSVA

Going from COc1ccc(Nc2nc(Nc3cc(C)[nH]n3)cc(N3CCN(C)CC3)n2)cc1OC to Cc1cc(Nc2cc(N3CCN(C)CC3)nc(Nc3ccc(F)cc3)n2)n[nH]1, the IC50 falls from 0.452 µM to 0.0751 µM (6-fold). The second is the more potent here.

What follows are compounds tested on HeLa (assay: Antiproliferative activity against human HeLa cells after 48 hrs by CCK8 assay). Conditions: not given.
Type: functional, cell-based

COc1ccc(Nc2nc(Nc3cc(C)[nH]n3)cc(N3CCN(C)CC3)n2)cc1OC and Cc1cc(Nc2cc(N3CCN(C)CC3)nc(Nc3ccc(F)cc3)n2)n[nH]1 are within 1.5-fold of each other in IC50: 0.678 µM for the first, 0.68 µM for the second.

These compounds were tested on HCT-116 (assay: Antiproliferative activity against human HCT116 cells after 48 hrs by CCK8 assay). Conditions: HCT-116, 48 h.
Type: functional, cell-based

COc1ccc(Nc2nc(Nc3cc(C)[nH]n3)cc(N3CCN(C)CC3)n2)cc1OC and Cc1cc(Nc2cc(N3CCN(C)CC3)nc(Nc3ccc(F)cc3)n2)n[nH]1 are within 1.5-fold of each other in IC50: 0.777 µM for the first, 0.653 µM for the second.

These compounds were tested against T1, Aurora kinase A (Homo sapiens, UniProt O14965) (assay: Inhibition of AURKA (unknown origin) using FAM-labeled peptide substrate preincubated for 10 mins followed by substrate addition measured after 60 mins by caliper assay). Conditions: not given.
T1 sequence (O14965 whole entry): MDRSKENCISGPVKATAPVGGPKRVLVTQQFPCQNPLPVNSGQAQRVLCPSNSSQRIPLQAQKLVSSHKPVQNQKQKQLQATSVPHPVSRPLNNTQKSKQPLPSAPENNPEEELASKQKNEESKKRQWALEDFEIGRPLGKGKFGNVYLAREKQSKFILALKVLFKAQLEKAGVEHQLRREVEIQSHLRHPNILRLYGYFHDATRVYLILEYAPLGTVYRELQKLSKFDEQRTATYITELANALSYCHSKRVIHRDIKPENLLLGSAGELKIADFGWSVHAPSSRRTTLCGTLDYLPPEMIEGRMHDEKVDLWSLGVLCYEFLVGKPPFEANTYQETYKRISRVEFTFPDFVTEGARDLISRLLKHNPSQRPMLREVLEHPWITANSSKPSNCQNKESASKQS

Compared with COc1ccc(Nc2nc(Nc3cc(C)[nH]n3)cc(N3CCN(C)CC3)n2)cc1OC, Cc1cc(Nc2cc(N3CCN(C)CC3)nc(Nc3ccc(F)cc3)n2)n[nH]1 is 1.7-fold lower in IC50: 0.038 µM for the first, 0.023 µM for the second.

These compounds were tested on MDA-MB-231 (assay: Antiproliferative activity against human MDA-MB-231 cells after 48 hrs by CCK8 assay). Conditions: MDA-MB-231, 48 h.
Type: functional, cell-based

Compared with COc1ccc(Nc2nc(Nc3cc(C)[nH]n3)cc(N3CCN(C)CC3)n2)cc1OC, Cc1cc(Nc2cc(N3CCN(C)CC3)nc(Nc3ccc(F)cc3)n2)n[nH]1 is 1.8-fold lower in IC50: 0.459 µM for the first, 0.255 µM for the second.

What follows are compounds tested on MCF7 (assay: Antiproliferative activity against human MCF7 cells after 48 hrs by CCK8 assay). Conditions: MCF7, 48 h.
Type: functional, cell-based

First: COc1ccc(Nc2nc(Nc3cc(C)[nH]n3)cc(N3CCN(C)CC3)n2)cc1OC
Second: Cc1cc(Nc2cc(N3CCN(C)CC3)nc(Nc3ccc(F)cc3)n2)n[nH]1
The IC50 of the first is 7.5-fold higher: 6.54 µM for the first, 0.873 µM for the second. The second is the more potent here.

The compounds below were run on A-431 (assay: Antiproliferative activity against human A431 cells after 48 hrs by CCK8 assay). Conditions: A-431, 48 h.
Type: functional, cell-based

Going from COc1ccc(Nc2nc(Nc3cc(C)[nH]n3)cc(N3CCN(C)CC3)n2)cc1OC to Cc1cc(Nc2cc(N3CCN(C)CC3)nc(Nc3ccc(F)cc3)n2)n[nH]1, the IC50 falls from 0.778 µM to 0.34 µM (2.3-fold).
